Data: publication PMC8799360, “In Vitro and In Vivo Effect of Xylopic Acid on Cytochrome P450 Enzymes” (Advances in Pharmacological and Pharmaceutical Sciences, 2022)

System: T1, CYP 3A4
T1 construct: liver microsomes from phenobarbitone-pretreated male rats
Assay: fluorometric benzyloxyresorufin (BROD) assay in rat liver microsomes
Assay type: biochemical

Compound	IC50
C=C1[C@@H]2CC[C@H]3[C@]4(C)CCC[C@@](C)(C(=O)O)[C@H]4CC[C@]3(C2)[C@@H]1OC(C)=O [XA, xylopic acid]	1300 ± 10 nM
